Measured values taken from US4049795A, “Treatment of hemorrhagic shock” (priority 1974, dated 1977).
Several values for one entry are separate records, joined by “and”; a condition that tells them apart may be missing. Identical values can stand only once.

Assays:
rats [1] = assay: Toxicity, oral administration in rats; format: in vivo, rat; conditions: six rats
[2] = Tolerance, intraperitoneal route, rabbits; conditions: rabbit, in vivo, ip, single dose, read-out: tolerated single dose
Description: Rabbits tolerate a single dose of 8 g/kg by the intraperitoneal route.

[3] = test system: oxygen consumption of the rat; assay: Oxygen consumption in metabolism apparatus for small animals (BARGETON and […]); format: in vivo
Description: The results obtained are given as percentage of the control tests in the following table I.

Rabbit ileum = assay: Isolated rabbit ileum, tonus
Experimental: Fragments of the ileum were suspended in a 75 ml isolated organ tank containing Tyrode's solution maintained at 37° C. by a thermostat and oxygenated by bubbling pure oxygen at a constant rate of flow. The movement of the organ were recorded by means of a lever on a cylinder rotating at a known constant speed.

Rabbit atrium = assay: Isolated rabbit atrium
Description: The technique used for this study was the same as that described above for the ileum of the rabbit, but replacing the ileum with bled rabbit atrium. The preservation liquid used as LOCKE's liquid.

[4] = test system: isolated segment of aorta; assay: Isolated segment of aorta, tonus
[5] = test system: response to adrenalin, noradrenalin and serotonin; assay: Response to adrenalin, noradrenalin and serotonin in the dog; format: in vivo; conditions: in the presence of dihydroxyacetone
Nitrogen anoxemia = Nitrogen anoxemia in rabbits; format: in vivo, rabbit
Experimental: The tests were done on rabbits weighing an average of 2.5 kg. The fastening of the cranial electrodes was done under local anaesthesia with procaine, as was the placing of the catheters in a femoral artery to record the blood pressure. The tracheotomies and tracheal intubations were also done under local anaesthesia using procaine. The temperature was maintained at around 38° C. Three types of anoxemia were investigated; 3. Nitrogen anoxemia: The animal was curarized and artifically ventilated as indicated above. Anoxemia was obtained by connecting a nitrogen gasbag to the air intake of the BEAUDOUIN apparatus; general non-hypercapnic anoxemia occurred. Air was […] seconds. […] A latency of 30 minutes was observed before anoxemia was caused.

[6] = test system: reticulo-endothelial system; assay: Phagocytic activity of the reticulo-endothelial system, carbon clearance (HALPERN); format: in vivo, rabbit; conditions: 1 g/kg
Description: That technique is based on the study of the kinetics of the disappearance in the blood of particles of carbon injected into the vein. The kinetics of disappearance follow the equation [formula] in which formula C1 is the concentration of carbon in the blood at time T1 and C2 is the concentration of carbon in the blood at time T2, K being a constant. The constant K, called phagocytic index, represents the phagocytic activity of the cells of the reticule-endothelial system under the experimental conditions. For the tests, the technique and carbon suspension described by […]. Physiol. of Paris, Vol. 50, p. […] The study was done on rabbits of the same stock, male or female, or an average weight of about 2.5 kg, devided into four batches of four animals each. The first batch was used as controls and received, by slow intravenous injection, 10 ml of a 0.8% solution of sodium chloride ten minutes before the injection of 4 mg of carbon per 100 g of animal. […] In all the tests, a total volume of 10 ml was injected with a fairly closely related injection speed (less than five minutes).

[7] = test system: free fatty acids in the plasma; assay: Non-esterified fatty acids in the plasma (DOLE); format: in vivo, rabbit; conditions: 1 g/kg
Experimental: Doses of 1 and 2 mg of adrenalin were introduced subcutaneously into rabbits weighing 2.5 to 3.5 kg.
FIGS. 8, 9 and 10 show the variation in the percentage of non-esterified fatty acids in the plasma as a function of the time. […]

[8] = test system: erythrocytic aggregation of the microcirculation (sludge); assay: Erythrocytic aggregation of the microcirculation (sludge), mesenteric circulation of the rabbit; format: in vivo; conditions: independent of the experimental cause of sludge
Experimental: This phenomenon was observed by using the technique developed by […] and BRUE (Agressologie, Vol. 4, No. 3, p. 299 ff of 1963): it entails a microscopic observation of the mesenteric circulation of the rabbit. […] The hemorrhagic shock was obtained by the […] method. The perfusion of adrenalin was carried out at a dose of 10 mg/kg/min. for 10 to 15 minutes. The perfusion of lactate was effected at a dose of 0.39 g/min for 15 minutes. The perfusion of ethyl alcohol (in a 20% aqueous solution) was carried out at a dose of 20 ml of solution (i.e. 4 ml of absolute alcohol) for 15 minutes.

[9] = test system: hepatic and renal circulation
electro-encephalograms = conditions: in vivo
electro-cardiograms = conditions: in vivo
rats [10] = assay: Toxicity, intraperitoneal injection in rats
hemorrhagic shock = assay: Irreversible hemorrhagic shock (WIGGERS) in dogs

Structure (SMILES): O=C(CO)CO [dihydroxyacetone]
- animals died at oral dose of 80 g/kg (rats [1]): one
- MTD [2]: 8000 mg/kg
- mean decrease (oxygen consumption) ([3]; 2 g / kilogram): 6.5
- Difference between the control measurement and the measurement after injection (oxygen consumption) ([3]; 2 g/kg, individual tests No. 1 to 12): 0 percentage of the control test and -18 percentage of the control test and -16 percentage of the control test and -13 percentage of the control test and -11 percentage of the control test
- mean decrease (oxygen consumption) ([3]; 4 g / kilogram): 4.1
- Difference between the control measurement and the measurement after injection (oxygen consumption) ([3]; 4 g/kg, individual tests No. 1 to 8): -13 percentage of the control test and -10 percentage of the control test
- oxygen consumption of the rat ([3]; overall result in words): decreased the oxygen consumption of the rat
- tonus of ileum (Rabbit ileum; 50 mg to 75 ml of survival medium): only a slight and transient tonus increase
- tonus of ileum (Rabbit ileum; dose printed as 18): a momentary hypertonia
- effect of potassium chloride in the presence of dihydroxyacetone (Rabbit ileum; rabbit ileum): decreases only the contractile amplitude without affecting the tonus
- effect on hypertonia due to acetylcholine (Rabbit ileum; rabbit ileum, acetylcholine): did not change
- effect on hypertonia caused by adrenalin (Rabbit ileum; rabbit ileum, adrenalin): clearly decreased
- effect on action of nicotine (Rabbit ileum; rabbit ileum, nicotine): clearly diminished
- effect on hypertonic activity of serotonin (Rabbit ileum; rabbit ileum, serotonin): The same observation was made with serotonin
- effect on hypertonic action of sodium lactate (Rabbit ileum; rabbit ileum, sodium lactate): influenced to only a small degree
- effect on hypertonic activity of reducing agents (Rabbit ileum; vitamin C or amino-ethyl isothiouronium): disappeared
- amplitude of atrium (Rabbit atrium; 800 mg per 75 ml of preservation liquid): a slight increase in amplitude
- effect on inhibitory action of sodium lactate added subsequently (Rabbit atrium; dihydroxyacetone 800 mg per 75 ml, then 600 mg of sodium lactate): a slight opposition to its inhibitory action
- action on the lactate when it was added first (Rabbit atrium; lactate added first): no action
- chronotropic action (Rabbit atrium; rabbit atrium): negative chronotropic action
- tonus of an isolated segment of aorta [4]: does not act on the tonus
- response to adrenalin, noradrenalin and serotonin [5]: remained unchanged
- recuperation latency, nitrogen anoxemia (Nitrogen anoxemia; 1 g/kg intravenously): a slight improvement
- recuperation time, nitrogen anoxemia (Nitrogen anoxemia; 1 g/kg intravenously): no improvement
- survival time, nitrogen anoxemia (Nitrogen anoxemia; 1 g/kg intravenously, prior perfusion): minor
- blood pressure in nitrogen anoxemia (Nitrogen anoxemia; anoxemia preceded by perfusion of dihydroxyacetone): maintained a high value
- speed of purification of the carbon particles with respect to control animals ([6]; 10 minutes before lactic acid 0.9 g/kg, FIG. 6): considerably increases
- speed at which the carbon particles disappear with respect to control animals ([6]; FIG. 5): practically no change
- percentages of non-esterified fatty acids in the plasma after adrenalin ([7]; after 1 mg of adrenalin, fed animals, FIG. 10): general tendency toward increased percentages
- percentage of non-esterified fatty acids in the plasma, fasted animals ([7]; animals without food for 24 hours, FIG. 11): return to normal
- intravascular aggregation (sludge) [8]: caused the intravascular aggregation to disappear
- mesenteric capillary circulation [8]: re-established the mesenteric capilliary circulation
- blood CO2 pressure ([9]; in vivo): stable
- blood pH without neutralisation of the solution ([9]; in vivo): a slight fall in the blood pH
- average pressure and pulse pressure ([9]; intravenous perfusion of 2 g/kg): A slight increase in the average pressure and a widening of the pulse pressure
- hepatic and renal flows ([9]; rapid perfusion, 1 g/kg): variably increased
- hepatic flow ([9]; rapid perfusion, 1 g/kg): nearly doubled
- formation of slow waves (electro-encephalograms): does not seem to favour the formation of slow waves
- change in the electro-cardiograms (electro-cardiograms): no change in the electro-cardiograms within standard deviations
- animals died, repeated injection every 2 hours (rats [10]; 4.5 g/kg every 2 hours, third group of 5 rats): 3 animals
- maximum non-lethal dose (rats [10]; intraperitoneal injection, rats): about 7.50 g/kg
- duration of the rise in blood pressure (hemorrhagic shock; 4 to 7 g/kg): maintained for several hours
- arterial and venous CO2 pressures and pH in hemorrhagic shock (hemorrhagic shock; 4 to 7 g/kg over about 3 hours): developed in a similar manner to those existing in the control animals
- glycemia in hemorrhagic shock (hemorrhagic shock; 4 to 7 g/kg over about 3 hours): rose above its initial level
- kalemia in hemorrhagic shock (hemorrhagic shock; 4 to 7 g/kg over about 3 hours): rose above that of the control animals
- lactacidemia in hemorrhagic shock (hemorrhagic shock; 4 to 7 g/kg over about 3 hours): reached values higher than in the control animals
- pyruvicemia in hemorrhagic shock (hemorrhagic shock; 4 to 7 g/kg over about 3 hours): continued to rise
- average difference in blood pressure between end of reinjection of effused blood and after the perfusion (hemorrhagic shock; 4 to 7 g/kg, average): 21.5 mm Hg
- blood pressure elevation or restoration compared with hypertonic glucose (hemorrhagic shock; comparison in words): appears to be more active than hypertonic glucose
- effect on the blood pressure in hemorrhagic shock (hemorrhagic shock; irreversible shock): favorable effect on the blood pressure
